In patent publication US4211551A, “Herbicide” (Siegfried AG, priority 1976, dated 1980):

Columns and labels:
[1] = test system: Green beans; assay: Field test, crop compatibility (EWRC-evaluation); assay type: in vivo
From the text: (§1) The composition prepared according to example 6 was used in field tests and compared with a composition of the type set forth in example 6 with the modification that the CBPA was replaced by the same amount of a conventional herbicide, i.e. Methabenzthiazuron (BSI approved common name). A "logarithmic" spraying apparatus of the type known in herbicide evaluation was used for these tests. This apparatus comprises an elongated spraying device connected with a reservoir for the composition to be tested, and a water reservoir. Separate test areas were sprayed with this apparatus and each composition was applied as an aqueous suspension. […] The apparatus was operated such that the initial concentration of the active ingredient was equivalent to 10 kg/ha and decreased as follows:
(§2) The amount of water applied by the apparatus remained constant and was equivalent to 666 liters per hectare. The tests were made in early August of 1976. The test areas were seeded with crop plant on a substantially weed-free soil, a middle-heavy sandy clay. One test area (zero-control) was seeded but not sprayed. Four weeks thereafter, the treated areas were inspected to determine the number of individual weed plants per square meter for five significant types of weeds and to calculate the percent effect according to the formula
(§3) wherein AK is the number of the individual plants of the specific weed in the untreated zero-control area and AB is the corresponding number of weed plants in the treated area. The results of these tests for three different dosage amounts with the inventive CBPA (column A) and the prior art Methabenzthiazuron are summarized in Table I below. This table further includes compatibility data of three types of crop plants for the tested composition. Crop compatibility was rated according to the evaluation scale of the "European Weed Research Council (EWRC)." In this scale, numeral 1 indicates complete absence of plant damage symptoms while numeral 9 indicates complete damage. For practical purposes, the crop tolerance limit is assumed to be between numerals 4 and 5.

[2] = test system: Corn (Zea mais); assay: Field test, crop compatibility (EWRC-evaluation); assay type: in vivo
From the text: as §1, §2, §3

[3] = test system: monocotyledonous and dicotyledonous weeds; assay: Herbicidal effectiveness against monocotyledonous and dicotyledonous weeds; assay type: in vivo; conditions: pre-emergence and post-emergence treatment
[4] = test system: weed infested crop area; assay: Treatment of weed infested crop area in the two to four leave state; assay type: in vivo
[5] = test system: five significant types of weeds; assay: Field test, average weed effect over five weeds; assay type: in vivo; conditions: four weeks
From the text: as §1, §2, §3

[6] = test system: mice; conditions: cited from earlier work
[7] = test system: Shepherds Purse (Capsella bursa-pastoris); assay: Field test, herbicidal % effect on weeds (logarithmic sprayer); assay type: in vivo; conditions: four weeks
From the text: as §1, §2, §3

[8] = test system: Rough Henbit (Lamium purpureum); assay: as above; assay type: in vivo; conditions: four weeks
From the text: as §1, §2, §3

[9] = test system: Camomile (Matricaria chamomilla); assay: as above; assay type: in vivo; conditions: four weeks
From the text: as §1, §2, §3

[10] = test system: Lambs Quarters (Chenopodium album); assay: as above; assay type: in vivo; conditions: four weeks
From the text: as §1, §2, §3

[11] = test system: Chickweed (Stellaria media); assay: as above; assay type: in vivo; conditions: four weeks
From the text: as §1, §2, §3

[12] = test system: Annual meadow grass (Poa annua); assay: Further field tests, control of Graminae weeds; assay type: in vivo
From the text: as §1, §2

[13] = test system: Barnyard Grass (Echinochloa crus-galli); assay: Further field tests, control of Graminae weeds; assay type: in vivo
From the text: as §1, §2

[14] = test system: Common wild oat (Avena fatua); assay: Further field tests, control of Graminae weeds; assay type: in vivo
From the text: as §1, §2

[15] = test system: weeds of the Graminae family; assay: Herbicidal effectiveness against Graminae weeds; assay type: in vivo; conditions: such as Barnyard grass, Annual meadow-grass, Wild Oat
[16] = test system: Wild oat (Avena fatua); assay: Green-house test, control of Wild oat (EWRC-scale); assay type: in vivo; conditions: scale 1 = complete absence of plant damage, 9 = complete damage
From the text: as §3
Green-house tests were made to determine the activity of CBPA in the control of Wild oat (Avena fatua), a very noxious weed in many crop cultures. The test plants were seeded and cultured in pots at temperatures of 20° to 21° C. Effectivity tests were made when the plants had reached the two-leave to four-leave state, i.e. when the total plant height was about 10 to 12 cm. The amount of water applied in addition to the composition was equivalent to 1000 liters per hectare in each case. As a comparative substance (formulated in the same manner as the inventive CBPA or its salts) a recently developed standard herbicide, Diclofop-methyl, (BSI-approved common name) was used.
The effects were rated again by the EWRC-scale mentioned above and the results are given in Table II below indicating the results at varying amounts of the applied substance (in kilograms of active substance per hectare) after 7, 14 and 21 days subsequent to the treatment.

[17] = test system: Barley; assay: Field test, crop compatibility (EWRC-evaluation); assay type: in vivo; conditions: scale 1 = complete absence of plant damage symptoms, 9 = complete damage
From the text: as §1, §2, §3

## O=C(O)COc1ccc(Cc2ccc(Cl)cc2)cc1 [CBPA, 4-(4'-chlorobenzyl)-phenoxy acetic acid]
[1]; in vivo
  Crop compatibility (EWRC-evaluation): 1
[2]; in vivo
  Crop compatibility (EWRC-evaluation): 1
[3]
  Herbicidal effectiveness against monocotyledonous and dicotyledonous weeds: remarkable degree of effectiveness
[3]; listed as 4-(4'-chlorobenzyl)-phenoxy acetic acid
  Herbicidal effectiveness against monocotyledonous and dicotyledonous weeds: surprisingly high degree of herbicidal effectiveness
[4]; two to four leave state, in addition to residual effectiveness
  Contact effect: remarkable contact effect
[4]; weeds and crops in two to four leave state
  Result of treatment in two to four leave state: positive results
[5]; 2.65 kg/ha a.i.
  Average weed effect (%): 81.8%
[5]; 4.3 kg/ha a.i.
  Average weed effect (%): 95.4%
[5]; 6.7 kg/ha a.i.
  Average weed effect (%): 99.4%
[6]
  LD50 (acute oral toxicity): 2700 mg per kilogram of body weight
[7]; 2.65 kg/ha a.i.
  Herbicidal % effect on specific weeds: 84%
[7]; 4.3 kg/ha a.i.
  Herbicidal % effect on specific weeds: 96%
[7]; 6.7 kg/ha a.i.
  Herbicidal % effect on specific weeds: 100%
[8]; 2.65 kg/ha a.i.
  Herbicidal % effect on specific weeds: 89%
[8]; 4.3 kg/ha a.i.
  Herbicidal % effect on specific weeds: 91%
[8]; 6.7 kg/ha a.i.
  Herbicidal % effect on specific weeds: 97%
[9]; 2.65 kg/ha a.i.
  Herbicidal % effect on specific weeds: 70%
[9]; 4.3 kg/ha a.i.
  Herbicidal % effect on specific weeds: 90%
[9]; 6.7 kg/ha a.i.
  Herbicidal % effect on specific weeds: 100%
[10]; 2.65 kg/ha a.i.
  Herbicidal % effect on specific weeds: 83%
[10]; 4.3 kg/ha a.i.
  Herbicidal % effect on specific weeds: 100%
[10]; 6.7 kg/ha a.i.
  Herbicidal % effect on specific weeds: 100%
[11]; 2.65 kg/ha a.i.
  Herbicidal % effect on specific weeds: 83%
[11]; 4.3 kg/ha a.i.
  Herbicidal % effect on specific weeds: 100%
[11]; 6.7 kg/ha a.i.
  Herbicidal % effect on specific weeds: 100%
[12]
  Effectiveness for control of Graminae weeds: remarkable effectiveness
[13]
  Effectiveness for control of Graminae weeds: remarkable effectiveness
[14]
  Effectiveness for control of Graminae weeds: remarkable effectiveness
[15]
  Effectiveness when controlling weeds of the Graminae family: particularly beneficial and high degree of effectiveness
[16]; 1 kg/ha, 7 days
  Effect on Wild oat rated by EWRC-scale: 3
[16]; 1 kg/ha, 14 days
  Effect on Wild oat rated by EWRC-scale: 4
[16]; 1 kg/ha, 21 days
  Effect on Wild oat rated by EWRC-scale: 4
[16]; 2 kg/ha, 7 days
  Effect on Wild oat rated by EWRC-scale: 4
[16]; 2 kg/ha, 14 days
  Effect on Wild oat rated by EWRC-scale: 6
[16]; 2 kg/ha, 21 days
  Effect on Wild oat rated by EWRC-scale: 8
[16]; 4 kg/ha, 7 days
  Effect on Wild oat rated by EWRC-scale: 5
[16]; 4 kg/ha, 14 days
  Effect on Wild oat rated by EWRC-scale: 9
[16]; 4 kg/ha, 21 days
  Effect on Wild oat rated by EWRC-scale: 9
[16]; 8 kg/ha, 7 days
  Effect on Wild oat rated by EWRC-scale: 5
[16]; 8 kg/ha, 14 days
  Effect on Wild oat rated by EWRC-scale: 9
[16]; 8 kg/ha, 21 days
  Effect on Wild oat rated by EWRC-scale: 9

## COC(=O)C(C)Oc1ccc(Oc2ccc(Cl)cc2Cl)cc1 (centres unmarked) [Diclofop-methyl, reference compound]
[16]; 1 kg/ha, 7 days
  Effect on Wild oat rated by EWRC-scale: 2
[16]; 1 kg/ha, 14 days
  Effect on Wild oat rated by EWRC-scale: 4
[16]; 1 kg/ha, 21 days
  Effect on Wild oat rated by EWRC-scale: 4
[16]; 2 kg/ha, 7 days
  Effect on Wild oat rated by EWRC-scale: 3
[16]; 2 kg/ha, 14 days
  Effect on Wild oat rated by EWRC-scale: 5
[16]; 2 kg/ha, 21 days
  Effect on Wild oat rated by EWRC-scale: 5
[16]; 4 kg/ha, 7 days
  Effect on Wild oat rated by EWRC-scale: 5
[16]; 4 kg/ha, 14 days
  Effect on Wild oat rated by EWRC-scale: 7
[16]; 4 kg/ha, 21 days
  Effect on Wild oat rated by EWRC-scale: 8
[16]; 8 kg/ha, 7 days
  Effect on Wild oat rated by EWRC-scale: 5
[16]; 8 kg/ha, 14 days
  Effect on Wild oat rated by EWRC-scale: 6
[16]; 8 kg/ha, 21 days
  Effect on Wild oat rated by EWRC-scale: 8

## CNC(=O)N(C)c1nc2ccccc2s1 [Methabenzthiazuron, reference compound]
[17]; 2.65 kg/ha a.i., tolerance limit between 4 and 5
  Crop compatibility (EWRC-evaluation): 1
[17]; 4.3 kg/ha a.i.
  Crop compatibility (EWRC-evaluation): 1
[17]; 6.7 kg/ha a.i., tolerance limit between 4 and 5
  Crop compatibility (EWRC-evaluation): 5
[1]; Green beans, 2.65 kg/ha a.i., scale 1 = complete absence of plant damage symptoms, 9 = complete damage, tolerance limit between 4 and 5
  Crop compatibility (EWRC-evaluation): 1
[1]; Green beans, 4.3 kg/ha a.i., scale 1 = complete absence of plant damage symptoms, 9 = complete damage
  Crop compatibility (EWRC-evaluation): 1
[1]; Green beans, 6.7 kg/ha a.i., scale 1 = complete absence of plant damage symptoms, 9 = complete damage
  Crop compatibility (EWRC-evaluation): 1
[2]; Corn, 2.65 kg/ha a.i., scale 1 = complete absence of plant damage symptoms, 9 = complete damage, tolerance limit between 4 and 5
  Crop compatibility (EWRC-evaluation): 1
[2]; Corn, 4.3 kg/ha a.i., scale 1 = complete absence of plant damage symptoms, 9 = complete damage
  Crop compatibility (EWRC-evaluation): 1
[2]; Corn, 6.7 kg/ha a.i., scale 1 = complete absence of plant damage symptoms, 9 = complete damage
  Crop compatibility (EWRC-evaluation): 1
[5]; 2.65 kg/ha a.i.
  Average weed effect (%): 74%
[5]; 4.3 kg/ha a.i.
  Average weed effect (%): 91.5%
[5]; 6.7 kg/ha a.i.
  Average weed effect (%): 95.6%
[7]; 2.65 kg/ha a.i.
  Herbicidal % effect on specific weeds: 95%
[7]; 4.3 kg/ha a.i.
  Herbicidal % effect on specific weeds: 99%
[7]; 6.7 kg/ha a.i.
  Herbicidal % effect on specific weeds: 100%
[8]; 2.65 kg/ha a.i.
  Herbicidal % effect on specific weeds: 0%
[8]; 4.3 kg/ha a.i.
  Herbicidal % effect on specific weeds: 73%
[8]; 6.7 kg/ha a.i.
  Herbicidal % effect on specific weeds: 80%
[9]; 2.65 kg/ha a.i.
  Herbicidal % effect on specific weeds: 88%
[9]; 4.3 kg/ha a.i.
  Herbicidal % effect on specific weeds: 100%
[9]; 6.7 kg/ha a.i.
  Herbicidal % effect on specific weeds: 100%
[10]; 2.65 kg/ha a.i.
  Herbicidal % effect on specific weeds: 87%
[10]; 4.3 kg/ha a.i.
  Herbicidal % effect on specific weeds: 94%
[10]; 6.7 kg/ha a.i.
  Herbicidal % effect on specific weeds: 98%
[11]; 2.65 kg/ha a.i.
  Herbicidal % effect on specific weeds: 100%
[11]; 4.3 kg/ha a.i.
  Herbicidal % effect on specific weeds: 100%
[11]; 6.7 kg/ha a.i.
  Herbicidal % effect on specific weeds: 100%
